# Source: ChEMBL document CHEMBL3885881, “DrugMatrix”
# Species: Rattus norvegicus
# Experiment: DrugMatrix - Regimen: Daily Repeat
# Assay type: toxicity, organism-based, Sprague-Dawley
# Set-up: regimen Daily Repeat, gender Male, age 6-8 weeks
# Details: in vivo, po, route oral GAVAGE, […]; for ABSOLUTE BASOPHIL / ABSOLUTE EOSINOPHIL / ABSOLUTE LYMPHOCYTE / ABSOLUTE MONOCYTE / ABSOLUTE SEGMENTED NEUTROPHIL / BASOPHIL / EOSINOPHIL / ERYTHROCYTE COUNT / HEMATOCRIT / HEMOGLOBIN / LEUKOCYTE COUNT / LYMPHOCYTE / MEAN CORPUSCULAR HEMOGLOBIN / MEAN CORPUSCULAR HEMOGLOBIN CONCENTRATION / MEAN CORPUSCULAR VOLUME / MONOCYTE / NEUTROPHIL / NUCLEATED RED BLOOD CELLS / PLATELET COUNT: tissue Blood; for ALANINE AMINOTRANSFERASE / ALBUMIN / ALKALINE PHOSPHATASE / ASPARTATE AMINOTRANSFERASE / BLOOD UREA NITROGEN / CARBON DIOXIDE / CHLORIDE / CHOLESTEROL / CREATINE PHOSPHOKINASE / CREATININE / GLUCOSE / LACTATE DEHYDROGENASE / LIPASE / PHOSPHORUS / POTASSIUM / SODIUM / TOTAL BILIRUBIN / TOTAL PROTEIN / URIC ACID: tissue Plasma
# [1] = 100 mg/kg, 120 h, dose level Low, time 5 day
# [2] = 750 mg/kg, 72 h, dose level High, time 3 day
# [3] = 750 mg/kg, 120 h, dose level High, time 5 day
compound,measurement,setting,value
CCn1cc(C(=O)O)c(=O)c2cc(F)c(N3CCNCC3)nc21 [ENOXACIN],ABSOLUTE BASOPHIL,[1],0 CELLS/uL
same,ABSOLUTE EOSINOPHIL,[1],262.67 CELLS/uL
same,ABSOLUTE LYMPHOCYTE,[1],12714 CELLS/uL
same,ABSOLUTE MONOCYTE,[1],457 CELLS/uL
same,ABSOLUTE SEGMENTED NEUTROPHIL,[1],1799.67 CELLS/uL
same,BASOPHIL,[1],0%
same,EOSINOPHIL,[1],1.33%
same,ERYTHROCYTE COUNT,[1],5.43 x10E6/uL
same,HEMATOCRIT,[1],34.07%
same,HEMOGLOBIN,[1],13.27 G/DL
same,LEUKOCYTE COUNT,[1],15.23 x10E3/uL
same,LYMPHOCYTE,[1],83.33%
same,MEAN CORPUSCULAR HEMOGLOBIN,[1],24.4 pg
same,MEAN CORPUSCULAR HEMOGLOBIN CONCENTRATION,[1],38.93 G/DL
same,MEAN CORPUSCULAR VOLUME,[1],62.67 fL
same,MONOCYTE,[1],3%
same,NEUTROPHIL,[1],12.33%
same,NUCLEATED RED BLOOD CELLS,[1],0 /100WBC
same,PLATELET COUNT,[1],958 x10E3/uL
same,ALANINE AMINOTRANSFERASE,[1],51.33 u/L
same,ALBUMIN,[1],4.1 G/DL
same,ALKALINE PHOSPHATASE,[1],295.33 u/L
same,ASPARTATE AMINOTRANSFERASE,[1],76.33 u/L
same,BLOOD UREA NITROGEN,[1],14.33 mg/dL
same,CARBON DIOXIDE,[1],23 mmol/L
same,CHLORIDE,[1],101 MEQ/L
same,CHOLESTEROL,[1],78.33 mg/dL
same,CREATINE PHOSPHOKINASE,[1],454 u/L
same,CREATININE,[1],0.19 mg/dL
same,GLUCOSE,[1],186.67 mg/dL
same,LACTATE DEHYDROGENASE,[1],187 u/L
same,LIPASE,[1],6.33 u/L
same,PHOSPHORUS,[1],12.27 mg/dL
same,POTASSIUM,[1],6.41 MEQ/L
same,SODIUM,[1],140.57 MEQ/L
same,TOTAL BILIRUBIN,[1],0.13 mg/dL
same,TOTAL PROTEIN,[1],5.9 G/DL
same,URIC ACID,[1],1.2 mg/dL
same,ABSOLUTE BASOPHIL,[2],0 CELLS/uL
same,ABSOLUTE EOSINOPHIL,[2],0 CELLS/uL
same,ABSOLUTE LYMPHOCYTE,[2],12588.33 CELLS/uL
same,ABSOLUTE MONOCYTE,[2],501.33 CELLS/uL
same,ABSOLUTE SEGMENTED NEUTROPHIL,[2],1877 CELLS/uL
same,BASOPHIL,[2],0%
same,EOSINOPHIL,[2],0%
same,ERYTHROCYTE COUNT,[2],5.55 x10E6/uL
same,HEMATOCRIT,[2],34.83%
same,HEMOGLOBIN,[2],13.57 G/DL
same,LEUKOCYTE COUNT,[2],14.97 x10E3/uL
same,LYMPHOCYTE,[2],84.33%
same,MEAN CORPUSCULAR HEMOGLOBIN,[2],24.47 pg
same,MEAN CORPUSCULAR HEMOGLOBIN CONCENTRATION,[2],38.93 G/DL
same,MEAN CORPUSCULAR VOLUME,[2],62.87 fL
same,MONOCYTE,[2],3.33%
same,NEUTROPHIL,[2],12.33%
same,NUCLEATED RED BLOOD CELLS,[2],0 /100WBC
same,PLATELET COUNT,[2],1299.33 x10E3/uL
same,ALANINE AMINOTRANSFERASE,[2],54 u/L
same,ALBUMIN,[2],3.8 G/DL
same,ALKALINE PHOSPHATASE,[2],389 u/L
same,ASPARTATE AMINOTRANSFERASE,[2],64.33 u/L
same,BLOOD UREA NITROGEN,[2],14.67 mg/dL
same,CARBON DIOXIDE,[2],24.67 mmol/L
same,CHLORIDE,[2],101.67 MEQ/L
same,CHOLESTEROL,[2],66.33 mg/dL
same,CREATINE PHOSPHOKINASE,[2],317.67 u/L
same,CREATININE,[2],0.12 mg/dL
same,GLUCOSE,[2],181.33 mg/dL
same,LACTATE DEHYDROGENASE,[2],80.33 u/L
same,LIPASE,[2],10 u/L
same,PHOSPHORUS,[2],9.8 mg/dL
same,POTASSIUM,[2],5.81 MEQ/L
same,SODIUM,[2],140.9 MEQ/L
same,TOTAL BILIRUBIN,[2],0.1 mg/dL
same,TOTAL PROTEIN,[2],5.63 G/DL
same,URIC ACID,[2],1.27 mg/dL
same,ABSOLUTE BASOPHIL,[3],0 CELLS/uL
same,ABSOLUTE EOSINOPHIL,[3],145 CELLS/uL
same,ABSOLUTE LYMPHOCYTE,[3],12773 CELLS/uL
same,ABSOLUTE MONOCYTE,[3],466 CELLS/uL
same,ABSOLUTE SEGMENTED NEUTROPHIL,[3],1749.33 CELLS/uL
same,BASOPHIL,[3],0%
same,EOSINOPHIL,[3],1%
same,ERYTHROCYTE COUNT,[3],5.4 x10E6/uL
same,HEMATOCRIT,[3],33.53%
same,HEMOGLOBIN,[3],13.27 G/DL
same,LEUKOCYTE COUNT,[3],15.13 x10E3/uL
same,LYMPHOCYTE,[3],84.33%
same,MEAN CORPUSCULAR HEMOGLOBIN,[3],24.57 pg
same,MEAN CORPUSCULAR HEMOGLOBIN CONCENTRATION,[3],39.6 G/DL
same,MEAN CORPUSCULAR VOLUME,[3],62.07 fL
same,MONOCYTE,[3],3%
same,NEUTROPHIL,[3],11.67%
same,NUCLEATED RED BLOOD CELLS,[3],0 /100WBC
same,PLATELET COUNT,[3],1091.67 x10E3/uL
same,ALANINE AMINOTRANSFERASE,[3],57.67 u/L
same,ALBUMIN,[3],4.03 G/DL
same,ALKALINE PHOSPHATASE,[3],396.33 u/L
same,ASPARTATE AMINOTRANSFERASE,[3],69.67 u/L
same,BLOOD UREA NITROGEN,[3],12.67 mg/dL
same,CARBON DIOXIDE,[3],24 mmol/L
same,CHLORIDE,[3],101.33 MEQ/L
same,CHOLESTEROL,[3],61.33 mg/dL
same,CREATINE PHOSPHOKINASE,[3],482.67 u/L
same,CREATININE,[3],0.16 mg/dL
same,GLUCOSE,[3],207 mg/dL
same,LACTATE DEHYDROGENASE,[3],141 u/L
same,LIPASE,[3],6.67 u/L
same,PHOSPHORUS,[3],13.2 mg/dL
same,POTASSIUM,[3],5.17 MEQ/L
same,SODIUM,[3],141.5 MEQ/L
same,TOTAL BILIRUBIN,[3],0.13 mg/dL
same,TOTAL PROTEIN,[3],5.8 G/DL
same,URIC ACID,[3],1.5 mg/dL
